*1 amine or outer side, *2 acyl side, *3 side chain or, on linkers, in order; H or OH if unused. Where a SMILES comes first, the peptide text is derived from it. Bridges are numbered along the chain shown (N, C = ends). [ ]: non-standard residue; d: D form. The star is where a group is joined. dαMeLys(Me) = CN(CCCC[C@@](C)(N[*:1])C(=O)[*:2])[*:3]; dPhg(4-F) = N[C@@H](C(=O)O)c1ccc(F)cc1; dPhg = N[C@@H](C(=O)O)c1ccccc1; Isobutyryl = CC(C)C(=O)*; Abu = CC[C@H](N)C(=O)O Bounds are passed on as bounds.

For the first test, the target named is T1, WDR5 (Homo sapiens, UniProt P61964).
T1 construct: N-terminal His-tagged WDR5Δ23 (residues 24-334) was expressed from the pET28-MHL vector; His tag (N); made in house; host or cells: Rosetta2(DE3) pLysS cells (E. coli)
The test is described as follows: fluorescence-polarization based competitive binding assay.
Conditions: not given
The procedure: Binding Assay Protein Expression and Purification for the Binding Assay
Cells were grown to OD600=0.4-0.6 in 4 L 2×TY at 30° C., induced with 0.1 mM IPTG at 16° C. for 16 hours and harvested in 20 mM HEPES pH 7.5, 500 mM KCl, 10% glycerol, 0.1 mg/ml PMSF, 0.05% NP40. Cells were lysed by addition of 0.2 mg/ml hen egg white lysozyme followed by sonication and clarification by centrifuging for 30 minutes at 15,000 rpm. The resin was washed 3 times for 10 minutes with 40 ml lysis buffer. His-WDR5Δ23 was eluted from the resin by 3×15 minute elutions with 20 mM HEPES pH 7.5, 100 mM KCl, 10% glycerol, 250 mM imidazole pH 7.5. […] Concentrated protein was aliquoted and samples were frozen on dry ice and stored at −80° C.
The IC50 value of the inhibitors were calculated using GraphPad Prism 4 software.
Competitive Binding Experiments
The binding affinities of the synthetic peptides shown in the study were measured using this competitive binding assay described earlier (31). A pre-incubated complex solution of WDR5Δ23 and the tracer in 120 μl assay buffer were added to dilutions of the test compound in 5 μl DMSO, giving final concentrations of WDR5Δ23 and the tracer of 4 nM and 0.6 nM, respectively. […] The plates were incubated with shaking at room temperature. The mP values were measured after five hours of incubation and Ki values were calculated using the equation described previously (32).
The term IC50 denotes the concentration that inhibits the measured activity by half. `CC[C@@H]1NC(=O)[C@H](CCCNC(=N)N)NC(=O)[C@](C)(NC(=O)C(C)C)CCCCN(C)C(=O)[C@@H](c2ccc(F)cc2)NC1=O` [Compound 29e] (Isobutyryl-[dαMeLys(Me)]R[Abu][dPhg(4-F)]; lactam 1-C): the IC50 was less than 0.01 µM. `CC[C@@H]1NC(=O)[C@H](CCCNC(=N)N)NC(=O)[C@](C)(NC(=O)C(C)C)CCCCN(C)C(=O)[C@@H](c2ccccc2)NC1=O` [Compound 29d] (Isobutyryl-[dαMeLys(Me)]R[Abu][dPhg]; lactam 1-C) had an IC50 of less than 0.01 µM. In the case of `CC[C@@H]1NC(=O)[C@H](CCCNC(=N)N)NC(=O)[C@](C)(NC(=O)C(C)C)CCCCN(C)C(=O)[C@@H](c2ccc(Cl)cc2)NC1=O` [Compound 29f], the IC50 is less than 0.01 µM.

Staying with this test, now noted: FP competitive binding; WDR5Δ23 4 nM, tracer 0.6 nM, five hours incubation; Table 2 series; read-out: IC50, binding affinity to WDR5.
Regarding `CC[C@@H]1NC(=O)[C@H](CCCNC(=N)N)NC(=O)[C@](C)(NC(=O)C(C)C)CCCCCCNC(=O)[C@@H](c2ccccc2)NC1=O` [Compound 29b], the IC50 is less than 0.01 µM. On the same count and under the same terms, then `CC[C@@H]1NC(=O)[C@H](CCCNC(=N)N)NC(=O)[C@](C)(NC(=O)C(C)C)CCCCCNC1=O` [Compound 19a], with less than 1 µM. Same read-out and setting: in the case of `CC[C@@H]1NC(=O)[C@H](CCCNC(=N)N)NC(=O)[C@](C)(NC(=O)C(C)C)CCCCCCCCNC1=O` [Compound 19c] it was less than 0.01 µM. Same read-out and setting: then `CC[C@@H]1NC(=O)[C@H](CCCNC(=N)N)NC(=O)[C@](C)(NC(=O)C(C)C)CCCCCCNC1=O` [Compound 19b], with less than 0.01 µM; and `CC[C@@H]1NC(=O)[C@H](CCCNC(=N)N)NC(=O)[C@](C)(NC(=O)C(C)C)CCCCCCNC(=O)[C@H](c2ccccc2)NC1=O` [Compound 29c], with less than 0.01 µM.

Staying with this test, now noted: FP competitive binding; WDR5Δ23 4 nM, tracer 0.6 nM, five hours incubation; Table 3 series; read-out: IC50, binding affinity to WDR5.
For `CC[C@@H]1NC(=O)[C@H](CCCNC(=N)N)NC(=O)[C@@](C)(NC(=O)C(C)C)CCCCCCNC(=O)[C@H](c2ccccc2)NC1=O` [Compound 36], the IC50 was less than 1 µM. The same measure, in the same setting: in the case of `CC[C@@H]1NC(=O)[C@H](CCCNC(=N)N)NC(=O)[C@@](C)(NC(=O)C(C)C)CCCCCCCNC1=O` [Compound 34c] it was less than 1 µM. On the same count and under the same terms, then `CC[C@@H]1NC(=O)[C@H](CCCNC(=N)N)NC(=O)[C@@](C)(NC(=O)C(C)C)CCCCCCCCNC1=O` [Compound 34d], with less than 1 µM.

The same test, now with this note: FP competitive binding; WDR5Δ23 4 nM, tracer 0.6 nM, five hours incubation; first cyclic series (Table 1); read-out: IC50, binding affinity to WDR5.
On to `CCC1(CC)NC(=O)CCCCNC(=O)[C@H](CCCNC(=N)N)NC1=O` [Compound 4a], for which the IC50 was more than 100 µM. On the same count and under the same terms, in the case of `CCC1(CC)NC(=O)CCCCCCCNC(=O)[C@H](CCCNC(=N)N)NC1=O` [Compound 4d] it was more than 1 µM; in that of `CCC1(CC)NC(=O)CCCCCNC(=O)[C@H](CCCNC(=N)N)NC1=O` [Compound 4b], more than 100 µM; in that of `CCC1(CC)NC(=O)CCCCCCCCNC(=O)[C@H](CCCNC(=N)N)NC1=O` [Compound 4e], more than 1 µM. On the same count and under the same terms, in the case of `CCC1(CC)NC(=O)CCCCCCNC(=O)[C@H](CCCNC(=N)N)NC1=O` [Compound 4c] it was more than 100 µM; in that of `CCC1(CC)NC(=O)CCCCCCCN(C(C)=O)C[C@H](CCCNC(=N)N)NC1=O` [Compound 14], more than 100 µM; in that of `CCC1(CC)NC(=O)CCCCCCCNC[C@H](CCCNC(=N)N)NC1=O` [Compound 15], more than 100 µM.
